In patent US20070021509A1, “Phosphate transport inhibitors” (priority 2001, published 2007):
Like-named read-outs stand apart in the source and are kept apart here. Blank lines part the entries; values can stand above or below the molecule they belong to.

Test system: phosphate uptake by rabbit intestinal Brush Border Membrane Vesicles (BBMV)
Assay: 33PO4 uptake in rabbit intestinal BBMV (HTS), phosphate transporter inhibition in vitro
Format: biochemical
Settings: for % Inhib. At 100 μM: Table 3, 100 μM compound; for IC50: read-out: IC50
Outline: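 BBMV from duodenal mucosa of male New Zealand White rabbits, diluted to about 0.5-2.0 mg/mL protein. Uptake buffers carried 33PO4 at 200,000 CPM/19 μL. Controls: Na uptake buffer (max), plus 100 μM KH2PO4 pH 7.4 (mid), K uptake buffer (min).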

SMILES: O=S(=O)(c1ccc(Cl)cc1)N1CCc2ccccc21 [Compound 140]
- % Inhib. At 100 μM: 69%

SMILES: Cc1ccc(S(=O)(=O)n2cc(/C=C/C(=O)O)c3ccccc32)cc1 [Compound 154]
- % Inhib. At 100 μM: 52%

- IC50 (Table 13, phosphate uptake): > 1500 µM
SMILES: O=S(=O)(O)c1cc(N=C=S)ccc1/C=C/c1ccc(N=C=S)cc1S(=O)(=O)O [Compound 307]

- IC50 (Table 2, phosphate uptake): > 1500 µM
SMILES: O=C(Nc1cccc(Cl)c1)c1cc(Br)ccc1NS(=O)(=O)c1ccc(Cl)c([N+](=O)[O-])c1 [Compound 123]

- IC50 (Table 7, phosphate uptake): 101 to 500 µM
SMILES: COc1ccc(-c2cc(-c3cccc(F)c3)n(C)n2)cc1 [Compound 239]

SMILES: COc1ccc(NC(=O)c2cc(Br)ccc2NS(=O)(=O)c2ccc(OC(F)(F)F)cc2)c([N+](=O)[O-])c1 [Compound 175]
- % Inhib. At 100 μM: 78%

SMILES: O=S(=O)(Nc1ccc(C(F)(F)F)cc1)c1ccc(NS(=O)(=O)c2ccc(C(F)(F)F)cc2)cc1 [Compound 131]
- % Inhib. At 100 μM: 80%

- IC50 (Table 1, phosphate uptake): 101 to 500 µM
SMILES: O=C(O)c1cc(Br)ccc1NS(=O)(=O)c1cccc(C(F)(F)F)c1 [Compound 16]

SMILES: Oc1ccc(-c2cc(-c3ccco3)on2)cc1 [Compound 236]
- % Inhib. at 100 μM (Table 6, 100 μM compound): 41%

SMILES: COc1ccc(-c2cc(-c3ccco3)on2)cc1 [Compound 231]
- % Inhib. at 100 μM (Table 6, 100 μM compound): 74%

SMILES: C[S+]([O-])c1ccc2c(c1)CCN2S(=O)(=O)c1cccc(C(F)(F)F)c1 (stereo not drawn) [Compound 157]
- % Inhib. At 100 μM: 37%

- IC50 (Table 4, phosphate uptake): 1000 to 1500 µM
SMILES: O=C(Nc1ccc(Br)cc1P(=O)(O)O)Nc1c(F)cccc1F [Compound 204]

- IC50 (Table 4, phosphate uptake): 501 to 1000 µM
SMILES: O=C(Nc1ccc(C(F)(F)F)cc1)Nc1ccc(Br)cc1P(=O)(O)O [Compound 202]

SMILES: O=S(=O)(Nc1ccccn1)c1ccc(OC(F)(F)F)cc1 [Compound 168]
- % Inhib. At 100 μM: 16%

SMILES: O=C(Nc1cccc(C(F)(F)F)c1)Nc1ccc(F)c([N+](=O)[O-])c1 [Compound 222]
- % Inhib. at 100 μM (Table 5, 100 μM compound): 88%

SMILES: O=S(=O)(Cc1ccccc1)c1ccccc1 [Compound 287]
- % Inhib. at 100 μM (Table 12, 100 μM compound): 34%

- IC50 (Table 1, phosphate uptake): 101 to 500 µM
SMILES: O=C(O)c1cc(Br)ccc1NS(=O)(=O)c1cccc(Cl)c1 [Compound 10]

- IC50 (Table 2, phosphate uptake): 101 to 500 µM
SMILES: COc1ccccc1NC(=O)c1cc(Br)ccc1NS(=O)(=O)c1ccc(Cl)c([N+](=O)[O-])c1 [Compound 117]

- IC50 (Table 1, phosphate uptake): > 1500 µM
SMILES: O=C(O)c1ccc(S(=O)(=O)Nc2ccc(Br)cc2C(=O)O)cc1 [Compound 47]

- IC50 (Table 1, phosphate uptake): 101 to 500 µM
SMILES: O=C(O)c1cc(Br)ccc1NS(=O)(=O)c1ccccc1F [Compound 25]

SMILES: COc1ccc(C2=NOC(c3ccco3)C2)cc1 (stereo not drawn) [Compound 237]
- % Inhib. at 100 μM (Table 6, 100 μM compound): 40%

- IC50 (Table 2, phosphate uptake): > 1500 µM
SMILES: O=C(Nc1ccc(Cl)cc1Cl)c1cc(Br)ccc1NS(=O)(=O)c1ccc(Cl)c([N+](=O)[O-])c1 [Compound 120]

- IC50 (Table 1, phosphate uptake): 101 to 500 µM
SMILES: O=C(O)c1cc(Br)ccc1NS(=O)(=O)c1cccc([N+](=O)[O-])c1 [Compound 13]

- IC50 (Table 1, phosphate uptake): 51 to 100 µM
SMILES: O=C(O)c1cc(Br)ccc1NS(=O)(=O)c1cc(C(F)(F)F)cc(C(F)(F)F)c1 [Compound 3]

- IC50 (Table 13, phosphate uptake): 501 to 1000 µM
SMILES: O=C(Nc1ccc(/C=C/c2ccc(NC(=O)c3ccccc3)cc2S(=O)(=O)O)c(S(=O)(=O)O)c1)c1ccccc1 [Compound 300]

SMILES: O=S(=O)(c1ccccc1)n1nnc2ccccc21 [Compound 143]
- % Inhib. At 100 μM: 64%

SMILES: O=[N+]([O-])c1ccc(/C=C/c2ccc([N+](=O)[O-])cc2S(=O)(=O)O)c(S(=O)(=O)O)c1 [Compound 305]
- IC50 (Table 13, phosphate uptake): 1000 to 1500 µM

SMILES: CC(C)(C)c1ccc(NS(=O)(=O)c2ccc(OC(F)(F)F)cc2)cc1 [Compound 138]
- % Inhib. At 100 μM: 71%

SMILES: CC(=O)Nc1ccc(S(=O)(=O)N2CCCc3ccccc32)cc1 [Compound 158]
- % Inhib. At 100 μM: 37%

SMILES: O=C(Nc1cccc(C(F)(F)F)c1)N1CCc2ccccc21 [Compound 225]
- % Inhib. at 100 μM (Table 5, 100 μM compound): 80%

- IC50 (Table 10, phosphate uptake): 101 to 500 µM
SMILES: O=C(Nc1ccc(Oc2ccc3ccccc3c2Br)c(Cl)c1)c1cc(Br)cc(Br)c1O [Compound 254]

SMILES: CCOP(=O)(OCC)c1cc(Br)ccc1NC(=O)c1cc(C(F)(F)F)ccc1C(F)(F)F [Compound 264]
- IC50 (Table 10, phosphate uptake): 101 to 500 µM

- IC50 (Table 1, phosphate uptake): 101 to 500 µM
SMILES: O=C(O)c1cc(Br)ccc1NS(=O)(=O)c1ccc(OC(F)(F)F)cc1 [Compound 14]

SMILES: O=C(Nc1ccccc1Cl)c1cc(Br)ccc1NS(=O)(=O)c1ccc(Cl)cc1 [Compound 173]
- % Inhib. At 100 μM: 95%

- IC50 (Table 4, phosphate uptake): 101 to 500 µM
SMILES: O=C(Nc1ccc(Cl)c(C(F)(F)F)c1)Nc1ccc(Br)cc1P(=O)(O)O [Compound 185]

SMILES: O=C(NCc1cccc(C(F)(F)F)c1)c1cc(Br)ccc1NS(=O)(=O)c1ccc(OC(F)(F)F)cc1 [Compound 172]
- % Inhib. At 100 μM: 96%

- IC50 (Table 4, phosphate uptake): > 1500 µM
SMILES: O=C(Nc1cccc(Br)c1)Nc1ccc(Br)cc1P(=O)(O)O [Compound 211]

SMILES: Cc1ccc(S(=O)(=O)Nc2ccc(/C=C/c3ccc(NS(=O)(=O)c4ccc(C)c([N+](=O)[O-])c4)cc3S(=O)(=O)O)c(S(=O)(=O)O)c2)cc1[N+](=O)[O-] [Compound 309]
- IC50 (Table 13, phosphate uptake): > 1500 µM

- IC50 (Table 2, phosphate uptake): 501 to 1000 µM
SMILES: CCCCCCCCCCc1ccc(NC(=O)c2cc(Br)ccc2NS(=O)(=O)c2ccc(OC(F)(F)F)cc2)cc1 [Compound 81]
